Assays:
[1] = target: T1, CreTPT3 (His-CreTPT3) (Chlamydomonas reinhardtii, UniProt A8HN02); test: inhibition of […]Pi uptake into proteoliposomes; assay type: cell-based; conditions: competitive; 0.25 mM external Pi, 30 mM Pi inside, competitor 0.05-5 mM, 4 min
T1 sequence (A8HN02 61-406): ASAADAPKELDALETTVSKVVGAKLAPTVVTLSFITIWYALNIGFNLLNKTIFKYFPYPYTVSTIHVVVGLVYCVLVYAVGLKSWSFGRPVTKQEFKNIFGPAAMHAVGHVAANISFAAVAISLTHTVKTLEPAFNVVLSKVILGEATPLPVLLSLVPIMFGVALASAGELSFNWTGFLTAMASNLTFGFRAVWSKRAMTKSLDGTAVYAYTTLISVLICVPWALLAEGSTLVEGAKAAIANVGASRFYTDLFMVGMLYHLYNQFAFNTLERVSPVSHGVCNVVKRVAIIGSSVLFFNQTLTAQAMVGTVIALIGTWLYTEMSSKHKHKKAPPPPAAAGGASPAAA

[2] = target: T2, CreTPT2 (His-CreTPT2) (Chlamydomonas reinhardtii, UniProt A0A2K3DMX1); test: inhibition of […]Pi uptake into proteoliposomes; assay type: cell-based; conditions: competitive; 0.25 mM external Pi, 30 mM Pi inside, competitor 0.05-5 mM, 4 min
T2 sequence (A0A2K3DMX1 71-401): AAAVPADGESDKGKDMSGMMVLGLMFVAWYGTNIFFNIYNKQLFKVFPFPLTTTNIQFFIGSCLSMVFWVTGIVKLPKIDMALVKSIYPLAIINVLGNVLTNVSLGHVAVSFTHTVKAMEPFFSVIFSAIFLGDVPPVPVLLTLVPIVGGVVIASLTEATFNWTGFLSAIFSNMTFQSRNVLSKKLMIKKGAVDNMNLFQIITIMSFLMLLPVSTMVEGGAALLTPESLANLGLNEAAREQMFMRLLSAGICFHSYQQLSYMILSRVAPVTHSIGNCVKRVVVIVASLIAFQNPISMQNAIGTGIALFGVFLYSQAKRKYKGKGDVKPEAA

## O=C(O)[C@H](O)COP(=O)(O)O [3-PGA]
[1]
  Ki: 790 ± 122 µM
[2]
  Ki: 780 ± 190 µM

## O=C(CO)COP(=O)(O)O [DHAP]
[1]
  Ki: 570 ± 13 µM
[2]
  Ki: 710 ± 120 µM

From paper doi:10.1101/2022.07.25.501471v5 (biorxiv, 2023)
